Laboratory results published in patent publication US20210244698A1, “DIFFUSION ENHANCING COMPOUNDS AND THEIR USE WITH THROMBECTOMY AND EMBOLECTOMY AND OTHER VASCULAR DISEASE PROCEDURES” (DIFFUSION PHARMACEUTICALS LLC, priority 2018, published 2021).

Experiments:
[1] = Solubility of TSC in water / aqueous solution with cyclodextrin; type: physicochemical
From the text: (§1) The use of gamma-cyclodextrin with TSC increases the solubility of TSC in water by 3-7 times. […] The solutions need not be equal-molar. The incorporation of the gamma cyclodextrin also allows for TSC to be absorbed into the blood stream when injected intramuscularly.
A trans carotenoid such as TSC can be formulated with a cyclodextrin as noted above and a non-metabolized sugar such as mannitol (e.g. d-mannitol to adjust the osmotic pressure to be the same as that of blood). Solutions containing over 20 mg TSC/ml of solution can be made this way. This solution can be added to isotonic saline or to other isotonic solutions in order to dilute it and still maintain the proper osmolality.

[2] = Stability of TSC in formulation as a function of pH; type: physicochemical
Procedure: Mannitol can be used to adjust osmolality and its concentration varies depending on the concentration of other ingredients. The glycine is held constant. […] The use of glycine is compatible with lyophilization. Alternatively, the TSC and cyclodextrin is formulated using a 50 mM bicarbonate buffer in place of the glycine.

[3] = Absorption of TSC into the blood stream after intramuscular injection with gamma cyclodextrin; type: in vivo; conditions: rats
From the text: as §1

SMILES: CC(/C=C/C=C(\C)C(=O)[O-])=C\C=C\C=C(C)\C=C\C=C(/C)C(=O)[O-].[Na+].[Na+] [TSC, trans sodium crocetinate]
- TSC content of aqueous solution ([1]; TSC and gamma-cyclodextrin, aqueous solution): ≤ 44 milligrams of TSC per ml of solution
- TSC content of solution ([1]; formulated with a cyclodextrin and mannitol): over 20 mg TSC/ml of solution
- stability versus pH [2]: more stable at higher pHs
- absorption into the blood stream when injected intramuscularly [3]: Absorption is quick
